According to patent US12550899B2, “Topramezone derivative and use thereof” (priority 2023, dated 2026):
Entries after “also recorded” stand apart in the source; their conditions may differ.

Key:
Assay type in all cases: in vivo
[1] = test system: Digitaria sanguinalis; assay: Laboratory rainfastness test (foliar spray, simulated rainfall); details: for Average fresh weight / Control efficacy: 20 days post-application
Protocol: Refer to the “Pesticides guidelines for laboratory bioactivity tests Part 4: Foliar spray application test for herbicide activity, NY/T 1155.4-2006”.
(§1) The soil used for the test was a mixture of surface 20 cm loam and vermiculite, mixed in a volume ratio of 3:1 to form a culture soil. The test weeds were cultured in a glass greenhouse with a temperature ranging from 25° C. to 35° C. and under natural light.
A measured quantity of Digitaria sanguinalis seeds were sown in plastic pots with a diameter of 9 cm, and covered with 1-2 mm of soil. The ports were then placed in enamel trays filled with water, and watered by bottom irrigation. After the water seeped to the soil surface, the pots were transferred to the glass greenhouse for standby.
(§2) Five dosages were set for Compound I, Compound II and the control herbicide Topramezone, which were 3.75, 7.5, 15, 30 and 60 grams of active ingredient per hectare respectively. In addition, a blank control was also prepared.
(§3) The required amount of the herbicide was accurately measured out and directly added with water, which was diluted to the required dosage by using the serial dilution method for standby.
(§4) The test was conducted on Digitaria sanguinalis at the two-leaf and one-heart stage, with the stems and leaves both sprayed uniformly. The ASS-4 automatic control spraying system with a fan-shaped nozzle was used indoors for herbicide application. Depending on the nozzle pressure and flow rate, 50 mL of herbicide solution was applied to a spraying area of 1.1 m^2 (which was equivalent to the water consumption of 30 L per mu). The system's operating speed was calibrated. The plastic pots to be treated were arranged evenly on the spraying platform to ensure uniform treatment. The spray pressure was set to 0.35 MPa, and the flow rate of the fan-shaped nozzle was set to 800 mL/min. The spraying was carried out in sequence from the low dosage to the high dosage. Each treatment was repeated four times.
The rainfastness test was set as follows: at 0.5 hours, 1.0 hour, 3.0 hours, and 6.0 hours after the application of the herbicide, the weeds that have already been sprayed with the herbicide were subjected to stem and leaf showering with a specific shower equipment simulating rainfall. Weeds that were not subjected to the showering treatment served as the control group.
The damage symptoms of the weeds (such as growth inhibition, chlorosis, malformation, etc.) were carefully recorded at 3, 7, 10, and 20 days after herbicide application. A visual comparison of the herbicide effectiveness was made after simulated rainfall at different time intervals. At 20 days post-application, the fresh weight of the aboveground parts of the weeds from each treatment group was measured, and the fresh weight control efficacy was calculated.
The treatment results were calculated according to the following formula: weed fresh weight control efficacy (%)=(control fresh weight−treatment fresh weight)/control fresh weight×100. A DPS statistical software was used to conduct regression analysis on the logarithmic values of the herbicide dosage and the probit values of the weed fresh weight control efficacy, and the correlation coefficient, GR50, GR90, and the 95% confidence interval were calculated.

[2] = test system: Portulaca oleracea; assay: Laboratory bioactivity efficacy test 2.2 (foliar spray)
Protocol: (§5) • grassy weeds: Digitaria sanguinalis, Eleusine indica, Echinochloa crusgalli; • Broadleaf weeds: Portulaca oleracea, Abutilon theophrasti medicus. 2.2.2 Test Conditions
as §1
(§6) Quantified seeds of Digitaria sanguinalis, Eleusine indica, Echinochloa crusgalli, Portulaca oleracea, and Abutilon theophrasti medicus were sown in plastic pots with a diameter of 9 cm, and covered with 1-2 mm of soil. The ports were then placed in enamel trays filled with water, and watered by bottom irrigation. After the water seeped to the soil surface, the pots were transferred to the glass greenhouse for standby.
as §2, §3
as §4, with “grassy weeds” for “Digitaria sanguinalis”, “one-heart stage, Abutilon theophrasti medicus at the 2-true-leaf stage, and Portulaca oleracea at the 3-5-leaf” for “one-heart”, “repeated two to” for “repeated”
(§7) The herbicide was applied once. After spraying, the pots were air-dried for one day and then placed in the glass greenhouse. Regular watering was conducted to maintain moisture.
(§8) The damage symptoms of the weeds (such as growth inhibition, chlorosis, malformation, etc.) were carefully recorded at 3, 7, 10, and 20 days after herbicide application. A visual comparison of the herbicide effectiveness was made. At 20 days post-application, the fresh weight of the aboveground parts of the weeds from each treatment group was measured, and the fresh weight control efficacy was calculated.
(§9) The treatment results were calculated according to the following formula: weed fresh weight control efficacy (%)=(control fresh weight−treatment fresh weight)/control fresh weight×100.
(§10) A DPS statistical software was used to conduct regression analysis on the logarithmic values of the herbicide dosage and the probit values of the weed fresh weight control efficacy, and the correlation coefficient, GR50, GR90, and the 95% confidence interval were calculated.

[3] = test system: Echinochloa crusgalli; assay: as above; details: fresh weight control efficacy 20 days post-application
Protocol: as §5, §1, §6, §2, §3
as §4, with “grassy weeds” for “Digitaria sanguinalis”, “one-heart stage, Abutilon theophrasti medicus at the 2-true-leaf stage, and Portulaca oleracea at the 3-5-leaf” for “one-heart”, “repeated two to” for “repeated”
as §7, §8, §9, §10

[4] = No spraying (no simulated rainfall), dosage 3.75 g/hectare
[5] = No spraying (no simulated rainfall), dosage 7.5 g/hectare
[6] = No spraying (no simulated rainfall), dosage 15 g/hectare
[7] = No spraying (no simulated rainfall), dosage 30 g/hectare
[8] = No spraying (no simulated rainfall), dosage 60 g/hectare
[9] = Spraying water 0.5 hour after herbicide application, dosage 3.75 g/hectare
[10] = Spraying water 0.5 hour after herbicide application, dosage 7.5 g/hectare
[11] = Spraying water 0.5 hour after herbicide application, dosage 15 g/hectare
[12] = Spraying water 0.5 hour after herbicide application, dosage 30 g/hectare
[13] = Spraying water 0.5 hour after herbicide application, dosage 60 g/hectare
[14] = Spraying water 1.0 hour after herbicide application, dosage 3.75 g/hectare
[15] = Spraying water 1.0 hour after herbicide application, dosage 7.5 g/hectare
[16] = Spraying water 1.0 hour after herbicide application, dosage 15 g/hectare
[17] = Spraying water 1.0 hour after herbicide application, dosage 30 g/hectare
[18] = Spraying water 1.0 hour after herbicide application, dosage 60 g/hectare
[19] = Spraying water 3.0 hour after herbicide application, dosage 3.75 g/hectare
[20] = Spraying water 3.0 hour after herbicide application, dosage 7.5 g/hectare
[21] = Spraying water 3.0 hour after herbicide application, dosage 15 g/hectare
[22] = Spraying water 3.0 hour after herbicide application, dosage 30 g/hectare
[23] = Spraying water 3.0 hour after herbicide application, dosage 60 g/hectare
[24] = Spraying water 6.0 hour after herbicide application, dosage 3.75 g/hectare
[25] = Spraying water 6.0 hour after herbicide application, dosage 7.5 g/hectare
[26] = Spraying water 6.0 hour after herbicide application, dosage 15 g/hectare
[27] = Spraying water 6.0 hour after herbicide application, dosage 30 g/hectare
[28] = Spraying water 6.0 hour after herbicide application, dosage 60 g/hectare
[29] = fresh weight control efficacy 20 days post-application

Cc1c(C(=O)c2cnn(C)c2OC(=O)C(C)(C)C)ccc(S(C)(=O)=O)c1C1=NOCC1 [Compound II, 4-(3-(4,5-dihydroisoxazol-3-yl)-2-methyl-4-(methylsulfonyl)benzoyl)-1-methyl-1H-pyrazol-5-yl pivalate]
Average fresh weight [1, 4]: 6.0 g
Control efficacy [1, 4]: 8.8%
Average fresh weight [1, 5]: 4.7 g
Control efficacy [1, 5]: 28.7%
Average fresh weight [1, 6]: 3.4 g
Control efficacy [1, 6]: 47.9%
Average fresh weight [1, 7]: 2.3 g
Control efficacy [1, 7]: 64.4%
Average fresh weight [1, 8]: 1.0 g
Control efficacy [1, 8]: 84.7%
Average fresh weight [1, 9]: 6.2 g
Control efficacy [1, 9]: 5.7%
Average fresh weight [1, 10]: 4.6 g
Control efficacy [1, 10]: 29.1%
Average fresh weight [1, 11]: 3.6 g
Control efficacy [1, 11]: 45.2%
Average fresh weight [1, 12]: 2.5 g
Control efficacy [1, 12]: 62.1%
Average fresh weight [1, 13]: 0.6 g
Control efficacy [1, 13]: 90.8%
Average fresh weight [1, 14]: 5.9 g
Control efficacy [1, 14]: 10.0%
Average fresh weight [1, 15]: 5.3 g
Control efficacy [1, 15]: 18.8%
Average fresh weight [1, 16]: 3.3 g
Control efficacy [1, 16]: 49.0%
Average fresh weight [1, 17]: 2.4 g
Control efficacy [1, 17]: 64.0%
Average fresh weight [1, 18]: 0.8 g
Control efficacy [1, 18]: 88.5%
Average fresh weight [1, 19]: 6.0 g
Control efficacy [1, 19]: 8.8%
Average fresh weight [1, 20]: 5.1 g
Control efficacy [1, 20]: 22.2%
Average fresh weight [1, 21]: 3.9 g
Control efficacy [1, 21]: 40.6%
Average fresh weight [1, 22]: 2.0 g
Control efficacy [1, 22]: 70.1%
Average fresh weight [1, 23]: 1.0 g
Control efficacy [1, 23]: 84.7%
Average fresh weight [1, 24]: 6.1 g
Control efficacy [1, 24]: 6.5%
Average fresh weight [1, 25]: 4.7 g
Control efficacy [1, 25]: 27.6%
Average fresh weight [1, 26]: 3.6 g
Control efficacy [1, 26]: 44.8%
Average fresh weight [1, 27]: 2.2 g
Control efficacy [1, 27]: 66.7%
Average fresh weight [1, 28]: 0.8 g
Control efficacy [1, 28]: 87.4%
Rainfastness compared with Topramezone (in words) ([1]; in vivo): significantly better rainfastness
Effect of rain on control efficacy (in words) ([1]; rain 0.5 h, 1.0 h and 3.0 h after application): remained stable
Effect of rain on control efficacy (in words) ([1]; rain 0.5 h after application): little impact; also recorded: almost unaffected
Control efficacy compared with Topramezone (in words) [2]: slightly better control efficacy
GR50 (95% confidence interval) [2, 29]: 5.57 (4.07-7.00) g a.i./ha
GR90 (95% confidence interval) [2, 29]: 28.20 (23.41-35.73) g a.i./ha
GR50 [3]: 6.13 g a.i./ha
GR90 [3]: 12.64 g a.i./ha
